Assay results as given in publication PMC3848040 (Science (New York, N.Y.), 2013).

Legend:
GTDC2dTM = target: T1, GTDC2dTM (Homo sapiens, UniProt Q8NAT1); assay: glycosyl transfer, gel filtration and NMR of product; format: biochemical
T1 sequence (Q8NAT1 26-580 limits assumed): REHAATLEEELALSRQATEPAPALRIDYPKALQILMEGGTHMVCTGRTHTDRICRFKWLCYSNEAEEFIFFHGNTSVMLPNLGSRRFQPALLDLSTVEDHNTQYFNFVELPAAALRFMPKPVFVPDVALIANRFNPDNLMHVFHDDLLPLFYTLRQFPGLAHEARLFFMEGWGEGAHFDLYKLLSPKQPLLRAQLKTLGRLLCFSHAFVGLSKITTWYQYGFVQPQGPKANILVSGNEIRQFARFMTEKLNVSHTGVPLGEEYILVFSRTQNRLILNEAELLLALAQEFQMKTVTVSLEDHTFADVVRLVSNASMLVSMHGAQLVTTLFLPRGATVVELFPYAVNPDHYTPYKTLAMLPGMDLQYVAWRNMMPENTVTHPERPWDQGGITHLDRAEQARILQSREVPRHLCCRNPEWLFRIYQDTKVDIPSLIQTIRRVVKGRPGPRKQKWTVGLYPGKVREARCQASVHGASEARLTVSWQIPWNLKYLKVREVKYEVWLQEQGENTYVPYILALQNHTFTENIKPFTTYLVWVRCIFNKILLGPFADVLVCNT

B3GALNT2dTM = target: T2, B3GALNT2dTM (Homo sapiens, UniProt Q8NCR0); assay: glycosyl transfer, MALDI-TOF/MS; format: biochemical; conditions: donor; acceptor GlcNAc-β4-Man-O-peptide
T2 sequence (Q8NCR0 24-500 limits assumed): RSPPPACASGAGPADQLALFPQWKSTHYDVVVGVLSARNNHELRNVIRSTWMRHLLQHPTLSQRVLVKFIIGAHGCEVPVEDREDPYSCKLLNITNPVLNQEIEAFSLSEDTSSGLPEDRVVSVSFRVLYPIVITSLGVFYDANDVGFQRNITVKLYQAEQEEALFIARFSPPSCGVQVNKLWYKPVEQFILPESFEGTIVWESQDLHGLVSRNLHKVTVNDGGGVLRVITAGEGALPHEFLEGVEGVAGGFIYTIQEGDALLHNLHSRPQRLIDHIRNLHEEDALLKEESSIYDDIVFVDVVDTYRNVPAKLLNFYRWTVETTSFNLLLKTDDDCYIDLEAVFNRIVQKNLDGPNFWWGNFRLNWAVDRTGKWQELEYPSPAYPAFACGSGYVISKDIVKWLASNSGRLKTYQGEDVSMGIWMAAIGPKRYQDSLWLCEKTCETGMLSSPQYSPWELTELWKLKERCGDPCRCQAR

## CC(=O)N[C@H]1[C@@H](OP(=O)(O)OP(=O)(O)OC[C@H]2O[C@@H](n3ccc(=O)[nH]c3=O)[C@H](O)[C@@H]2O)O[C@H](CO)[C@@H](O)[C@@H]1O [UDP-GlcNAc]
GTDC2dTM; donor, acceptor Man-α-MU
  glycosyl transfer, gel filtration and NMR of product: Reactant of the GTDC2dTM assay using Man-α-MU and UDP-GlcNAc was separated

## Cc1cc(=O)oc2cc(O[C@H]3O[C@H](CO)[C@@H](O)[C@H](O)[C@@H]3O)ccc12 [Man-α-MU, 4-methylumbelliferyl-α-D-mannoside]
GTDC2dTM; acceptor, donor UDP-GlcNAc
  glycosyl transfer, gel filtration and NMR of product: conducted the transfer assay using fluorescently labeled mannoside (4-methylumbelliferyl-α-D-mannoside; Man-α-MU) as the acceptor

## CC(=O)N[C@H]1[C@@H](OP(=O)(O)OP(=O)(O)OC[C@H]2O[C@@H](n3ccc(=O)[nH]c3=O)[C@H](O)[C@@H]2O)O[C@H](CO)[C@H](O)[C@@H]1O [UDP-GalNAc]
B3GALNT2dTM
  glycosyl transfer, MALDI-TOF/MS: incubated this protein with UDPGalNAc and the GlcNAc-β4-Man-O-peptide produced by the GTDC2dTM reaction
